{
  "source": "ChEMBL document CHEMBL1153708",
  "about": "“Synthesis and evaluation of a thio analogue of duocarmycin SA” (Bioorg Med Chem Lett, 2009)",
  "note": "Active and inactive are the calls of the source. The rule behind the calls is not given here.",
  "data": [
    {"tested_on": "L1210", "experiment": "Cytotoxicity against mouse L1210 cells", "format": "functional, cell-based", "units": {"IC50": "nM"}, "values": [
      {"smiles": "COC(=O)c1cc2c([nH]1)C(=O)C=C1N(C(=O)OC(C)(C)C)C[C@@H]3C[C@@]123", "IC50": 60},
      {"smiles": "COC(=O)c1cc2c(s1)C(=O)C=C1N(C(=O)OC(C)(C)C)C[C@H]3C[C@]123", "IC50": 6},
      {"smiles": "COC(=O)c1cc2c(s1)C(=O)C=C1N(C(=O)c3cc4cc(OC)c(OC)c(OC)c4[nH]3)C[C@H]3C[C@]123", "IC50": 0.007},
      {"smiles": "COC(=O)c1cc2c(s1)C(=O)C=C1N(C(=O)OC(C)(C)C)C[C@@H]3C[C@@]123", "IC50": 55},
      {"smiles": "COC(=O)c1cc2c(s1)C(=O)C=C1N(C(=O)c3cc4cc(OC)c(OC)c(OC)c4[nH]3)C[C@@H]3C[C@@]123", "IC50": 0.06}
    ]},
    {"tested_on": "Nucleic Acid", "experiment": "Induction of w794 DNA alkylation at 10 uM after 24 hrs by PAGE", "format": "nucleic-acid assay", "values": [
      {"smiles": "COC(=O)c1cc2c([nH]1)C(=O)C=C1N(C(=O)c3cc4cc(OC)c(OC)c(OC)c4[nH]3)C[C@@H]3C[C@@]123", "Activity": "Active"},
      {"smiles": "COC(=O)c1cc2c([nH]1)C(=O)C=C1N(C(=O)c3cc4cc(OC)c(OC)c(OC)c4[nH]3)C[C@H]3C[C@]123", "Activity": "Active"},
      {"smiles": "COC(=O)c1cc2c(s1)C(=O)C=C1N(C(=O)c3cc4cc(OC)c(OC)c(OC)c4[nH]3)C[C@@H]3C[C@@]123", "Activity": "Active"}
    ]}
  ]
}
